Measurements reported in PMC5814585, “Modulators of actin-myosin dissociation: basis for muscle type functional differences during fatigue” (American Journal of Physiology - Cell Physiology, 2017).
Values belong to the compound of their own block, whether it stands above or below them.

Assays:
[1] = test system: actin.PsoS1 (rabbit psoas myosin S1 bound to pyrene-actin); assay: ATP-induced dissociation of pyr.actin.S1, stopped flow, pyrene fluorescence (fast, psoas); assay type: biochemical; conditions: for kobs of ATP-induced dissociation: 25 µM ATP; for activation energy (Ea) of K1k+2: Pso
Description: (§1) Myosin was prepared from the rabbit psoas (for fast MyHC-II) and the bovine masseter muscle (for slow MyHC-I) according to Margossian and Lowey ([41]), and was subsequently digested to subfragment 1 (S1) with chymotrypsin as described by Weeds and Taylor ([57]) which removes the regulatory light chain region.
(§2) Actin was prepared from rabbit muscle as described by Spudich & Watt ([52]) and labeled with pyrene iodoacetamide to give pyrene-labeled actin as described by Criddle et al. ([15]). Protein stocks of S1 and of pyrene-labeled actin were stored at 4°C and were used for up to 2 wk. In the text herein, reference to actin implies pyrene-labeled actin.
(§3) Stopped-flow experiments were performed essentially as described previously ([4]) using a HiTech Scientific SF-61DX2 stopped-flow system; 4–5 transients were acquired for each ATP transient (Kinetic Studio suite). The dead time of the equipment was 0.002 s. A wide temperature range (5–45°C) for measurements was available because of a new adaptation of the standard stopped-flow machine [see Ref. [56]). Briefly, the samples were held at room temperature (20°C) and then passed through a heat exchanger, at the temperature required for the measurement, just before entering the mixing chamber/observation chamber of the stopped flow. The samples were only exposed to the temperature of the measurement for a few seconds, thus allowing measurements of proteins under conditions where they are not usually stable for long.
(§4) The ATP-induced dissociation rate of actin.S1 was measured in the stopped flow by mixing a fixed concentration of pyr.actin.S1 complex (end concentration 0.25 µM) with excess ATP and monitoring fluorescence transients from the pyrene-labeled actin [excitation at 365 nm, emission through a KV389 nm cutoff filter (Schott, Mainz, Germany)]. Details of the kinetic analysis are given under Data Fitting and Interpretation Approach.
(§5) The averaged transients were fitted with a single (Eqn 1) or, if needed, a double exponential equation (Eqn 2):(1)) Ft=ΔF·e^(^−kobs·t)+F∞ or(2)) Ft=ΔF(1)·e^(^−kobs(1)·t)+ΔF(2)·e^(^−kobs(2)·t)+F∞ where Ft is the observed fluorescence at time t, F∞ is the fluorescence at the end of the transient (t = ∞) and ΔF is the total change of fluorescence observed. […] A plot of [ATP] vs. kobs was used to derive the values of K1 and k+2 (using Origin software version 6.0), as defined in Fig. 1 and Eqn 3.
(§6) The values of –Ea/R or or ΔH°/R were derived from the slopes.

[2] = target: T1, actin.MassS1 (bovine masseter myosin S1 bound to pyrene-actin) (Bos taurus, UniProt Q9BE39); assay: ATP-induced dissociation of pyr.actin.S1, stopped flow, pyrene fluorescence (slow, masseter); assay type: biochemical; parameters: reduction of amplitude of the dissociation reaction in the presence of phosphate / increase of activation energy by phosphate / activation energy (Ea) of K1k+2: dose or concentration left out as unconfirmed; conditions: for kobs of ATP-induced dissociation: 25 µM ATP; for activation energy (Ea) of K1k+2: Mass
T1 construct: from tissue; host or cells: bovine masseter muscle (myosin); rabbit muscle (actin)
Description: as §1, §2, §3
as §4, with “([…])” for “(end concentration 0.25 µM)”
as §5, §6

actin.MassS1 = target: T2, actin.MassS1 (Bos taurus, UniProt Q9BE39); assay: ADP release rate constant (k-AD), ADP displacement by excess ATP; assay type: biochemical, bovine; parameters: effect of Pi on kobs of ADP release / increase in kobs of ADP release in the presence of phosphate / activation energy (Ea) of k−AD (ADP release): dose or concentration left out as unconfirmed; conditions: […] mM Pi
T2 construct: from tissue; host or cells: bovine masseter muscle (myosin); rabbit muscle (actin)
Description: Two types of myosins were studied which are known to differ in their dissociation constant for nucleotides ([5], [51]). The rate constant for the release of ADP (k−ADP) is relatively slow for masseter S1 and can easily be measured in an ADP displacement experiment. This step is very fast for a fast muscle isoform and too fast to measure by current equipment. Briefly, actin.^MassS1 saturated with 75 µM of ADP (A.M.D complex) was mixed with a large excess of ATP (8 mM) in the stopped flow. Then the kobs values, fitted to a single exponential equation (Eqn 1) defined the rate constant by which ADP is released by the ternary A.M.D complex (k−AD).
The temperature dependence of the above studied biochemical steps K1k+2, KADP, KPi, and KADP+Pi data were plotted as the natural logarithm of the measured parameter against the reciprocal of temperature in degrees Kelvin (1/T °K) and fitted with linear regression using the Arrhenius (rate constants) or Van’t Hoff (equilibrium constants) equations(7)) lnK1k+2=ln(A)−Ea/RT (8)) lnKeq=ΔS°/R−ΔH°/RT where Ea stands for activation energy, R is the gas constant, and A is a preexponential factor. The values of –Ea/R or or ΔH°/R were derived from the slopes.

kobs of ATP-induced dissociation ([2]; 0.5 µM pyrAct.MassS1, pH 7.0, 5°C): 26.7 s⁻¹
kobs of ATP-induced dissociation ([2]; 0.5 µM pyrAct.MassS1, pH 7.0, 25°C): 46.7 s⁻¹
kobs of ATP-induced dissociation ([2]; 0.5 µM pyrAct.MassS1, pH 7.0, 35°C): 64.9 s⁻¹
kobs of ATP-induced dissociation ([2]; 0.5 µM pyrAct.MassS1, pH 7.0, […]°C): 36.1 s⁻¹
kobs of ATP-induced dissociation ([2]; zero ADP, 20°C, pH 7.0): 37.5 s⁻¹
activation energy (Ea) of K1k+2 ([2]; pH 6.2, + […] mM Pi): 7.34 ± 0.17 kcal/mol
activation energy (Ea) of K1k+2 ([2]; pH 6.2, no Pi, 5–43°C): 5.69 ± 0.263 kcal/mol
activation energy (Ea) of K1k+2 ([2]; pH 7.0, + […] mM Pi): 7.15 ± 0.263 kcal/mol
activation energy (Ea) of K1k+2 ([2]; pH 7.0, no Pi, 5–43°C): 6.14 ± 0.335 kcal/mol
activation energy of the dissociation rate constant ([2]; masseter, in the presence of phosphate, irrespective of pH): 7.17 ± 0.24 kcal/mol
SMILES: Nc1ncnc2c1ncn2[C@@H]1O[C@H](COP(=O)(O)OP(=O)(O)OP(=O)(O)O)[C@@H](O)[C@H]1O [ATP]
kobs of ATP-induced dissociation ([1]; 0.5 µM pyr-act.PsoS1, pH 7.0, 5°C): 84.8 s⁻¹
kobs of ATP-induced dissociation ([1]; 0.5 µM pyr-act.PsoS1, pH 7.0, 25°C): 208.5 s⁻¹
kobs of ATP-induced dissociation ([1]; 0.5 µM pyr-act.PsoS1, pH 7.0, 35°C): 296.9 s⁻¹
kobs of ATP-induced dissociation ([1]; 0.5 µM pyr-act.PsoS1, pH 7.0, 43°C): 374.4 s⁻¹
kobs of ATP-induced dissociation ([1]; 0.5 µM pyr-act.PsoS1, pH 7.0, […]°C): 136.2 s⁻¹
kobs of ATP-induced dissociation ([1]; zero ADP, 20°C, pH 7.0): 87.7 s⁻¹
activation energy (Ea) of K1k+2 ([1]; pH 6.2, + 30 mM Pi): 9.37 ± 0.382 kcal/mol
activation energy (Ea) of K1k+2 ([1]; pH 6.2, no Pi, 5–43°C): 7 ± 0.19 kcal/mol
activation energy (Ea) of K1k+2 ([1]; pH 7.0, + 30 mM Pi): 9.01 ± 0.287 kcal/mol
activation energy (Ea) of K1k+2 ([1]; pH 7.0, no Pi, 5–43°C): 6.76 ± 0.19 kcal/mol
activation energy of the dissociation rate constant ([1]; psoas, in the presence of phosphate, irrespective of pH): 9.08 ± 0.24 kcal/mol

reduction of amplitude of the dissociation reaction in the presence of phosphate ([2]; MassS1, […] mM Pi): 50%
increase of activation energy by phosphate ([2]; masseter, […] mM Pi vs no Pi): about 5 kJ/mol
increase in kobs of ADP release in the presence of phosphate (actin.MassS1; pH 6.2): 30–50%
effect of Pi on kobs of ADP release (actin.MassS1; pH 7.0): little effect
SMILES: O=P(O)(O)O [Pi, inorganic phosphate]
reduction of amplitude of the dissociation reaction in the presence of phosphate ([1]; PsoS1, 30 mM Pi): 50%
increase of activation energy by phosphate ([1]; PsoS1, both pH values, 30 mM Pi vs no Pi): about 10 kJ/mol
